Measured values: US11161830B2, “4-pyridone compound or salt thereof, and pharmaceutical composition and formulation including same” (priority 2017, dated 2021)
Values joined by “and” are separate entries in the source; they are usually repeats but may differ in a detail not shown here. Equal values may be shown once. Read-outs that look alike come from different tables or passages of the source.

Columns and labels:
HBV (genotype AeUS) = assay: Test Example 2-1: anti-HBV assay in PXB-cells (fresh human hepatocytes); type: cell-based, hepatitis B virus; conditions: Hepatitis B virus, Hepatocyte, PXB-cells infected with HBV genotype AeUS, culture supernatant on day 32 post infection
Method in brief: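 PXB-cells (primary human hepatocytes from chimeric mice) infected with mouse-serum-derived HBV genotype AeUS at ~10 copies/cell with 4% PEG-8000. Compound dosed days 17–32 post-infection, refreshed every 5 days, 37 °C. Day-32 supernatant HBV-DNA by real-time PCR and HBsAg by chemiluminescent immunoassay, as % of untreated control; IC50 by log-linear regression.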

HBV genotype C = assay: Test Example 3-1: in vivo efficacy study in PXB mouse (chimeric mouse with human hepatocytes); set-up: species or system hepatitis B virus; conditions: orally 100 mg/kg twice a day for 14 days
Experimental: An in vivo efficacy study with a. PXB mouse (a chimeric mouse with human hepatocytes) was carried out in PhenixBio Co., Ltd. 27-Week-or-more-old male mice having body weights of 15 g or more after the elapse of 12 weeks from the infection with HBV genotype C were allocated into three groups (2 mice per group) and used.
The compounds of Examples 6-5 and 10-2 were each orally administered at 100 mg/kg twice a day for 14 days. The other group was taken as a control group for which administration was not carried out. A first administration day was taken as day 0, and before administration on day 0, day 3, Day 7, and day 10, and on day 14, the blood was collected from the orbital venous plexus under anesthesia with isoflurane. The serum was separated from the collected blood and purified with a QIAamp (registered trademark) DNA Blood Mini Kit (manufactured by QIAGEN). The amount of HBV-DNA in the obtained solution was absolutely quantified by a real-time PCR method. In addition, the amount of HBsAg and the amount of HBcrAg in the serum were each absolutely quantified by chemiluminescent enzyme immunoassay using Lumipulse (registered trademark) HBsAg-HQ (manufactured by Fujirebio Inc.) and Lumipulse (registered trademark) HBcrAg (manufactured by Fujirebio Inc.).

HBV (genotype CAT) = assay: Test Example 2-2: anti-HBV assay in PXB-cells (fresh human hepatocytes); type: cell-based; conditions: Hepatitis B virus, Hepatocyte
Experimental: Using fresh human hepatocytes (PXB-cells, manufactured by PhenixBio Co., Ltd.) collected from a PXB mouse (a chimeric mouse with human hepatocytes), the anti-HBV activity of the representative compounds was evaluated in the following procedure.
The following was used as a medium:
DMEM (manufactured by Sigma)+0.25 μg/mL insulin (manufactured by Wako)+1% penicillin/streptomycin. (manufactured by Sigma)+20 mmol/L HEPES (manufactured by Sigma)+15 μg/mL L-proline (manufactured by Sigma)+50 nmol/L dexamethasone (manufactured by Sigma)+5 ng/mL EGF (manufactured by Peprotech)+0.1 mmol/L ascorbic acid 2-phosphate (manufactured by Wako)+10% FBS+2% DMSO
Each of the test compounds) was further added to the medium to prepare a test solution containing each of the test compounds at various concentrations.
(1) PXB-cells seeded at a seeding density of 2.1×10^5 cells/cm^2 in a 96-well microliter plate were incubated in a 5% CO2 incubator at 37° C. until a day on which the cells were infected.
(2) A HBV (genotype CAT) prepared by transfecting an HBV plasmid into an HepG2 cell was suspended in the medium containing 4% PEG-8000, and added to the plate of (1) at about 30 copies/cell such that the PXB cells were infected (100 μL/well), and the plate was incubated in a 5% CO2 incubator at 37° C. for 1 day.
(3) The culture supernatant on day 1 post infection was removed and the cells were washed three times with DMEM containing 10% FBS and 1% penicillin/streptomycin. Then, the medium was added to the plate (100 μL/well) and the plate was incubated in a 5% CO2 incubator at 37° C. for 1 day.
(4) The culture supernatant on day 2 post infection was removed and the cells were washed three times with DMEM containing 10% FBS and 1% penicillin/streptomycin. Then, the medium was added to the plate (100 μL/well) and the plate was incubated in a 5% CO2 incubator at 37° C. for 5 days.
(5) The culture supernatant on day 7 post infection was removed, the medium was added to the plate (100 μL/well), and the plate was incubated in a 5% CO2 incubator at 37° C. for 5 days.
(6) The culture supernatant on day 12 post infection was removed, the medium was added to the plate (100 μL/well), and the plate was incubated in a 5% CO2 incubator at 37° C. for 5 days.
(§1) (7) The culture supernatant on day 17 post infection was removed, the test solution was added to the plate (100 μL/well), and the plate was incubated in a 5% CO2 incubator at 37° C. for 5 days. As a control without the compound added, the medium was added to the plate (100 μL/well) and the plate was incubated in a 5% CO2 incubator at 37° C. for 5 days.
as §1, with “(8)” for “(7)”, “22” for “17”
as §1, with “(9)” for “(7)”, “27” for “17”
(10) The culture supernatant on day 32 post infection was collected.
(11) The collected culture supernatant on day 32 post infection was treated with a mixture of Buffer AL (manufactured by QIAGEN) and Proteinase K (manufactured by Invitrogen). The amount of HBV-DNA in the obtained solution was absolutely quantified by a real-time PCR method. In addition, the amount of HBsAg in the culture supernatant was absolutely quantified by chemiluminescent enzyme immunoassay using Lumipulse (registered trademark) HBsAg-HQ (manufactured by Fujirebio Inc.). A relative viral load (%) with respect to a control without the compound added was each calculated. […]

[1] = Day 0 (before administration), individual mice

Question: Which results are given for `COC[C@H]1CCCN1c1nc2ccc(-n3cc(C(=O)O)c(=O)cc3-c3ccc(N4CC[C@@H](OC)C4)cc3)cc2s1` [Example 10-2, 1-(2-((R)-2-(methoxymethyl)pyrrolidin-1-yl)benzo[d]thiazol-6-yl)-6-(4-((R)-3-methoxypyrrolidin-1-yl)phenyl)-4-oxo-1,4-dihydropyridine-3-carboxylic acid]?
Answer: IC50 (HBV (genotype AeUS); read-out: IC50 HBV-DNA): 18 nM; IC50 (HBV (genotype AeUS); read-out: IC50 HBsAg): 22 nM; HBV-DNA in serum (HBV genotype C; [1]): 1.5E+09 copies/mL and 3.2E+09 copies/mL; HBcrAg in serum (HBV genotype C; [1]): 2.7E+08 U/mL and 4.1E+08 U/mL; HBsAg in serum (HBV genotype C; [1]): 2,930 IU/mL and 2,629 IU/mL; HBV-DNA in serum (HBV genotype C; Day 3, individual mice): 1.0E+09 copies/mL and 1.4E+09 copies/mL; HBcrAg in serum (HBV genotype C; Day 3, individual mice): 8.8E+07 U/mL and 1.4E+08 U/mL; HBsAg in serum (HBV genotype C; Day 3, individual mice): 638 IU/mL and 564 IU/mL; HBV-DNA in serum (HBV genotype C; Day 7, individual mice): 6.9E+08 copies/mL and 4.7E+08 copies/mL; HBcrAg in serum (HBV genotype C; Day 7, individual mice): 7.5E+07 U/mL and 7.3E+07 U/mL; HBsAg in serum (HBV genotype C; Day 7, individual mice): 450 IU/mL and 429 IU/mL; HBV-DNA in serum (HBV genotype C; Day 10, individual mice): 8.4E+08 copies/mL and 6.4E+08 copies/mL; HBsAg in serum (HBV genotype C; Day 10, individual mice): 476 IU/mL and 407 IU/mL; HBV-DNA in serum (HBV genotype C; Day 14, individual mice): 9.6E+08 copies/mL and 1.3E+09 copies/mL; HBcrAg in serum (HBV genotype C; Day 14, individual mice): 7.8E+07 U/mL and 9.8E+07 U/mL; HBsAg in serum (HBV genotype C; Day 14, individual mice): 522 IU/mL and 477 IU/mL

Question: `COCCN1CCN(c2nc3ccc(-n4cc(C(=O)O)c(=O)cc4-c4ccc(N5CCCC5)c(Cl)c4)cc3s2)CC1` [Example 6-5, 6-(3-chloro-4-(pyrrolidin-1-yl)phenyl)-1-(2-(4-(2-methoxyethyl)piperazine-1-yl)benzo[d]thiazol-6-yl)-4-oxo-1,4-dihydropyridine-3-carboxylic acid] was tested. Which IC50 (HBV (genotype AeUS); read-out: IC50 HBV-DNA) did it give?
Answer: The IC50 was < 8 nM.

Question: And the IC50 (HBV (genotype AeUS); read-out: IC50 HBsAg)?
Answer: Its IC50 is 16 nM.

Question: And the IC50 (HBV (genotype CAT); read-out: IC50 HBV-DNA, PXB-cells infected with HBV genotype CAT, culture supernatant on day 32 post infection)?
Answer: The IC50 was 76 nM.

Question: What about the IC50 (HBV (genotype CAT); read-out: IC50 HBsAg, PXB-cells infected with HBV genotype CAT, culture supernatant on day 32 post infection) of the same compound?
Answer: Its IC50 is 61 nM.

Question: And the HBV-DNA in serum (HBV genotype C; [1])?
Answer: Its HBV-DNA in serum is 2.3E+09 copies/mL and 2.1E+09 copies/mL.

Question: And the HBcrAg in serum (HBV genotype C; [1])?
Answer: Its HBcrAg in serum is 4.5E+08 U/mL and 2.9E+08 U/mL.

Question: What about the HBsAg in serum (HBV genotype C; [1]) of the same compound?
Answer: The HBsAg in serum was 3,578 IU/mL and 2,370 IU/mL.

Question: And the HBV-DNA in serum (HBV genotype C; Day 3, individual mice)?
Answer: The HBV-DNA in serum was 8.7E+08 copies/mL and 7.1E+08 copies/mL.

Question: What about the HBcrAg in serum (HBV genotype C; Day 3, individual mice) of the same compound?
Answer: The HBcrAg in serum was 1.5E+08 U/mL and 9.7E+07 U/mL.

Question: What about the HBsAg in serum (HBV genotype C; Day 3, individual mice) of the same compound?
Answer: Its HBsAg in serum is 781 IU/mL and 357 IU/mL.

Question: And the HBV-DNA in serum (HBV genotype C; Day 7, individual mice)?
Answer: Its HBV-DNA in serum is 2.7E+08 copies/mL and 2.9E+08 copies/mL.

Question: And the HBcrAg in serum (HBV genotype C; Day 7, individual mice)?
Answer: The HBcrAg in serum was 8.7E+07 U/mL and 7.7E+07 U/mL.

Question: What about the HBsAg in serum (HBV genotype C; Day 7, individual mice) of the same compound?
Answer: Its HBsAg in serum is 570 IU/mL and 345 IU/mL.

Question: What about the HBV-DNA in serum (HBV genotype C; Day 10, individual mice) of the same compound?
Answer: Its HBV-DNA in serum is 3.4E+08 copies/mL and 6.3E+08 copies/mL.

Question: What about the HBsAg in serum (HBV genotype C; Day 10, individual mice) of the same compound?
Answer: Its HBsAg in serum is 588 IU/mL and 355 IU/mL.

Question: What about the HBV-DNA in serum (HBV genotype C; Day 14, individual mice) of the same compound?
Answer: Its HBV-DNA in serum is 3.3E+08 copies/mL and 8.4E+08 copies/mL.

Question: What about the HBcrAg in serum (HBV genotype C; Day 14, individual mice) of the same compound?
Answer: Its HBcrAg in serum is 7.5E+07 U/mL and 9.1E+07 U/mL.

Question: And the HBsAg in serum (HBV genotype C; Day 14, individual mice)?
Answer: Its HBsAg in serum is 540 IU/mL and 349 IU/mL.
